Laboratory results published in PubChem BioAssay AID2060602 (Molecular Pharmacology Branch, DTP, NCI, 2025).
Several values for one entry are separate records, joined by “and”; a condition that tells them apart may be missing. Equal values may be shown once.

Tested on: 648629-189-R-J1-PDC complex spheroids viability
Experiment: Anticancer human tumor 648629-189-R-J1-PDC patient-derived bladder carcinoma cell line growth inhibition [CLK]
Conditions: for viability, T/C: stronger effect = lower value
In short: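 Patient-derived tumor cells grown as complex spheroids with HUVEC endothelial cells and mesenchymal stem cells, treated with drug combinations. Concentrations descend in half-log steps from near clinical Cmax, or from 10 microM if Cmax unknown.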

[1] = curve of first compound, second compound 0.0316 µM
[2] = curve of first compound, second compound 0.1 µM
[3] = curve of first compound, second compound 0.316 µM
[4] = curve of first compound, second compound 1 µM
[5] = curve of first compound, second compound 3.16 µM
[6] = curve of first compound, second compound 10 µM
[7] = second compound 0.0316 µM, first compound 0.0316 µM
[8] = second compound 0.0316 µM, first compound 0.1 µM
[9] = second compound 0.0316 µM, first compound 0.316 µM
[10] = second compound 0.0316 µM, first compound 1 µM
[11] = second compound 0.0316 µM, first compound 3.16 µM
[12] = second compound 0.0316 µM, first compound 10 µM
[13] = second compound 0.1 µM, first compound 0.0316 µM
[14] = second compound 0.1 µM, first compound 0.1 µM
[15] = second compound 0.1 µM, first compound 0.316 µM
[16] = second compound 0.1 µM, first compound 1 µM
[17] = second compound 0.1 µM, first compound 3.16 µM
[18] = second compound 0.1 µM, first compound 10 µM
[19] = second compound 0.316 µM, first compound 0.0316 µM
[20] = second compound 0.316 µM, first compound 0.1 µM
[21] = second compound 0.316 µM, first compound 0.316 µM
[22] = second compound 0.316 µM, first compound 1 µM
[23] = second compound 0.316 µM, first compound 3.16 µM
[24] = second compound 0.316 µM, first compound 10 µM
[25] = second compound 1 µM, first compound 0.0316 µM
[26] = second compound 1 µM, first compound 0.1 µM
[27] = second compound 1 µM, first compound 0.316 µM
[28] = second compound 1 µM, first compound 1 µM
[29] = second compound 1 µM, first compound 3.16 µM
[30] = second compound 1 µM, first compound 10 µM
[31] = second compound 3.16 µM, first compound 0.0316 µM
[32] = second compound 3.16 µM, first compound 0.1 µM
[33] = second compound 3.16 µM, first compound 0.316 µM
[34] = second compound 3.16 µM, first compound 1 µM
[35] = second compound 3.16 µM, first compound 3.16 µM
[36] = second compound 3.16 µM, first compound 10 µM
[37] = second compound 10 µM, first compound 0.0316 µM
[38] = second compound 10 µM, first compound 0.1 µM
[39] = second compound 10 µM, first compound 0.316 µM
[40] = second compound 10 µM, first compound 1 µM
[41] = second compound 10 µM, first compound 3.16 µM
[42] = second compound 10 µM, first compound 10 µM
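Wherever viability, T/C is given: drug exposure lasted seven days before viability readout; 100% = DMSO vehicle control wells.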

`COc1cccc2c1C(=O)c1c(O)c3c(c(O)c1C2=O)CC(O)(C(=O)CO)CC3OC1CC(N)C(O)C(C)O1` (configuration not stated) + CNC(=O)c1ccc(Nc2nc(OC3CCCC3)c3c(-c4ccc5nc(C)oc5c4)c[nH]c3n2)c(OC)c1 was tested, and the IC50 [1] was under 31.6 nM, the IC50 [2] was under 31.6 nM and the IC50 [3] was under 31.6 nM. It also gave an IC50 [4] of under 31.6 nM, an IC50 [5] of under 31.6 nM and an IC50 [6] of under 31.6 nM. For the same molecule, the viability, T/C [7] was 26.4%, the viability, T/C [8] was 13.9% and the viability, T/C [9] was 5.64%. It also gave a viability, T/C [10] of 0.45%, a viability, T/C [11] of 0.38% and a viability, T/C [12] of 0.54%. For the same molecule, the viability, T/C [13] was 19.4%, the viability, T/C [14] was 11.8% and the viability, T/C [15] was 5.03%. It also gave a viability, T/C [16] of 0.29%, a viability, T/C [17] of 1.37% and a viability, T/C [18] of 2.64%. It also gave a viability, T/C [19] of 16.4%, a viability, T/C [20] of 13.1% and a viability, T/C [21] of 6.53%. For the same molecule, the viability, T/C [22] was 0.2%, the viability, T/C [23] was 0.98% and the viability, T/C [24] was 0.49%. It also gave a viability, T/C [25] of 12.5%, a viability, T/C [26] of 10.1% and a viability, T/C [27] of 4.27%. It also gave a viability, T/C [28] of 0.27%, a viability, T/C [29] of 0.56% and a viability, T/C [30] of 3.36%. The viability, T/C [31] was 18.9%, the viability, T/C [32] was 13.1% and the viability, T/C [33] was 4.42%. For the same molecule, the viability, T/C [34] was 0.23%, the viability, T/C [35] was 0.79% and the viability, T/C [36] was 1.4%. For the same molecule, the viability, T/C [37] was 21.1%, the viability, T/C [38] was 13.5% and the viability, T/C [39] was 8.07%. It also gave a viability, T/C [40] of 0.28%, a viability, T/C [41] of 2.28% and a viability, T/C [42] of 3.42%.

`Nc1ccccc1NC(=O)c1ccc(CNC(=O)OCc2cccnc2)cc1` + CN1CCN(c2cc(C(=O)Nc3cc4cc(-c5cnn(C)c5)ccc4cn3)ccn2)CC1 showed an IC50 [1] of 1870 nM, an IC50 [2] of 1840 nM and an IC50 [3] of under 31.6 nM. The IC50 [4] was under 31.6 nM, the IC50 [5] was under 31.6 nM and the IC50 [6] was under 31.6 nM. The viability, T/C [7] was 124%, the viability, T/C [8] was 125% and the viability, T/C [9] was 96.9%. For the same molecule, the viability, T/C [10] was 72.2%, the viability, T/C [11] was 32.5% and the viability, T/C [12] was 1.56%. The viability, T/C [13] was 107%, the viability, T/C [14] was 109% and the viability, T/C [15] was 96.9%. It also gave a viability, T/C [16] of 71.7%, a viability, T/C [17] of 31% and a viability, T/C [18] of 1.87%. It also gave a viability, T/C [19] of 37.4%, a viability, T/C [20] of 46.7% and a viability, T/C [21] of 39.1%. For the same molecule, the viability, T/C [22] was 33.8%, the viability, T/C [23] was 7.95% and the viability, T/C [24] was 0.08%. The viability, T/C [25] was 0.41%, the viability, T/C [26] was 0.4% and the viability, T/C [27] was 0.31%. For the same molecule, the viability, T/C [28] was 0.07%, the viability, T/C [29] was 0.1% and the viability, T/C [30] was 0.53%. For the same molecule, the viability, T/C [31] was 0.08%, the viability, T/C [32] was 1.97% and the viability, T/C [33] was 0.1%. The viability, T/C [34] was 0.07%, the viability, T/C [35] was 0.07% and the viability, T/C [36] was 2.02%. The viability, T/C [37] was 0.04%, the viability, T/C [38] was 0.11% and the viability, T/C [39] was 0.12%. It also gave a viability, T/C [40] of 0.14%, a viability, T/C [41] of 2.26% and a viability, T/C [42] of 0.17%.

With `CC1COCCN1c1cc(C2(S(C)(=N)=O)CC2)nc(-c2ccnc3[nH]ccc23)n1` (configuration not stated) the viability, T/C (compound 0.0316 µM) was 103% and 105%, the viability, T/C (compound 0.1 µM) was 96.5% and 93.5% and the viability, T/C (compound 0.316 µM) was 108% and 97%. The viability, T/C (compound 1 µM) was 87.4% and 95%, the viability, T/C (compound 3.16 µM) was 47.8% and 45.4% and the viability, T/C (compound 10 µM) was 23.8% and 18.8%. For the same molecule, the IC50 (curve of compound) was 2930 nM and 2840 nM.

In the case of `O=c1[nH]cc(F)c(=O)[nH]1`, the viability, T/C (compound 0.0316 µM) is reported as 101% and 97.3%, the viability, T/C (compound 0.1 µM) is reported as 92.7% and 84.2% and the viability, T/C (compound 0.316 µM) is reported as 80.1% and 69.3%. For the same molecule, the viability, T/C (compound 1 µM) was 57.8% and 36%, the viability, T/C (compound 3.16 µM) was 29.1% and 31.9% and the viability, T/C (compound 10 µM) was 19.3% and 26.1%. For the same molecule, the IC50 (curve of compound) was 1310 nM and 632 nM.

Molecule `Nc1ccccc1NC(=O)c1ccc(CNC(=O)OCc2cccnc2)cc1` + CNC(=O)c1ccc(Nc2nc(OC3CCCC3)c3c(-c4ccc5nc(C)oc5c4)c[nH]c3n2)c(OC)c1 has an IC50 [1] of 1590 nM, an IC50 [2] of 1560 nM and an IC50 [3] of under 31.6 nM. The IC50 [4] was under 31.6 nM, the IC50 [5] was under 31.6 nM and the IC50 [6] was under 31.6 nM. The viability, T/C [7] was 104%, the viability, T/C [8] was 93.5% and the viability, T/C [9] was 96.7%. The viability, T/C [10] was 63.9%, the viability, T/C [11] was 27.1% and the viability, T/C [12] was 0.72%. The viability, T/C [13] was 86.6%, the viability, T/C [14] was 90.8% and the viability, T/C [15] was 82.4%. It also gave a viability, T/C [16] of 65.1%, a viability, T/C [17] of 26.2% and a viability, T/C [18] of 0.23%. The viability, T/C [19] was 30.3%, the viability, T/C [20] was 22.9% and the viability, T/C [21] was 27.1%. For the same molecule, the viability, T/C [22] was 27.5%, the viability, T/C [23] was 17.8% and the viability, T/C [24] was 0.7%. The viability, T/C [25] was 17.4%, the viability, T/C [26] was 19.8% and the viability, T/C [27] was 20.5%. The viability, T/C [28] was 18.4%, the viability, T/C [29] was 12.6% and the viability, T/C [30] was 0.5%. It also gave a viability, T/C [31] of 18.9%, a viability, T/C [32] of 18.3% and a viability, T/C [33] of 19.3%. The viability, T/C [34] was 18.5%, the viability, T/C [35] was 16.4% and the viability, T/C [36] was 0.52%. For the same molecule, the viability, T/C [37] was 21.7%, the viability, T/C [38] was 16.4% and the viability, T/C [39] was 19.5%. For the same molecule, the viability, T/C [40] was 23.9%, the viability, T/C [41] was 15.6% and the viability, T/C [42] was 1.56%.

With `Nc1ccn(C2OC(CO)C(O)C2(F)F)c(=O)n1` (configuration not stated) the viability, T/C (compound 0.0316 µM) was 49.6% and 38.5%, the viability, T/C (compound 0.1 µM) was 18.4% and 12.3% and the viability, T/C (compound 0.316 µM) was 11.4% and 11%. The viability, T/C (compound 1 µM) was 6.88% and 9.43%, the viability, T/C (compound 3.16 µM) was 6.14% and 8.17% and the viability, T/C (compound 10 µM) was 4.28% and 6.46%. For the same molecule, the IC50 (curve of compound) was under 31.6 nM.
